From PMC4150253 (ChemMedChem, 2014) come the findings set out here.

The IC50 is the concentration that gives 50% inhibition. Read a low IC50 as greater potency in that assay.

What all share (assay type): biochemical
For one experiment, the target named is FL-Tip60 (1-512 aa) (Homo sapiens, UniProt Q92993). Put plainly: Radiometric filter binding HAT assay, full-length Tip60.
For the next experiment, the target named is CAT-Tip60 (221-512 aa) (Homo sapiens, UniProt Q92993). Put plainly: Radiometric filter binding HAT assay, Tip60 catalytic domain.
CAT-Tip60 (221-512 aa), sequence (Q92993 221-512): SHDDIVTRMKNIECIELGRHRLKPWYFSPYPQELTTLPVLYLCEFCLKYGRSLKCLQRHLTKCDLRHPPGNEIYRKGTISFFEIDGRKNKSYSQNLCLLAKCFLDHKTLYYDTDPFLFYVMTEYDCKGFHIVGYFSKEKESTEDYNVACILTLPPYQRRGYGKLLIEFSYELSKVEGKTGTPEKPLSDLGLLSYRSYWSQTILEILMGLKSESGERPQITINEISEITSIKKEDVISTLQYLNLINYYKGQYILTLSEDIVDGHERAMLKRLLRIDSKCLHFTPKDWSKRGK
Experiment [1] deals with PCAF HAT domain (493-658) (Homo sapiens, UniProt Q92831). Put plainly: Radiometric HAT assay, PCAF HAT domain.
PCAF HAT domain (493-658), sequence (Q92831 493-658): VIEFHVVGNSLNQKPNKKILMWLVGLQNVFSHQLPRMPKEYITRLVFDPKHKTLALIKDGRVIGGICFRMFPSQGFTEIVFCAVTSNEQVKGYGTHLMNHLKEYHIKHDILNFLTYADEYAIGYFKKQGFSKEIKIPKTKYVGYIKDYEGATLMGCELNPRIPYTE

FL-Tip60 (1-512 aa), sequence (Q92993 1-512): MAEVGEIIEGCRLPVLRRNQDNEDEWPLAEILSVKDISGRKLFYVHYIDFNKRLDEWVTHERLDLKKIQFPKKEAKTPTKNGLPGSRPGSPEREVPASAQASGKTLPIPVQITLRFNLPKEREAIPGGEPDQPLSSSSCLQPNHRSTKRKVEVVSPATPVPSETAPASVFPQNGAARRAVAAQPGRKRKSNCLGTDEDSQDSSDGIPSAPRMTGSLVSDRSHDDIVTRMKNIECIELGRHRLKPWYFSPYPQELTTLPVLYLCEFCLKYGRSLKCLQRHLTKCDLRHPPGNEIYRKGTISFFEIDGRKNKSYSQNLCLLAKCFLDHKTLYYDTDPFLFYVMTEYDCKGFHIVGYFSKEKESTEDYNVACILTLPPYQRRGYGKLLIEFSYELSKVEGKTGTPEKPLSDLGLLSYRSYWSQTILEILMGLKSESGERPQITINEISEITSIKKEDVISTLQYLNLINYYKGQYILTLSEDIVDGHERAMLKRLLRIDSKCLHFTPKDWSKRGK

With `CC(C)(COP(=O)(O)OP(=O)(O)OC[C@H]1O[C@@H](n2cnc3c(N)ncnc32)[C@H](O)[C@@H]1OP(=O)(O)O)[C@@H](O)C(=O)NCCC(=O)NCCS` [CoASH], the 50% inhibitory concentration (IC50) is 9.1 ± 1 µM at FL-Tip60 (1-512 aa), 16 ± 3.1 µM at CAT-Tip60 (221-512 aa) and 8.4 ± 0.4 µM in experiment [1].
